{
  "source": "ChEMBL document CHEMBL5726651",
  "about": "“Alkyne compounds for treatment of complement mediated disorders” (2017)",
  "molecular_target": "Complement factor D (Homo sapiens, UniProt P00746)",
  "sequence (P00746 whole entry)": "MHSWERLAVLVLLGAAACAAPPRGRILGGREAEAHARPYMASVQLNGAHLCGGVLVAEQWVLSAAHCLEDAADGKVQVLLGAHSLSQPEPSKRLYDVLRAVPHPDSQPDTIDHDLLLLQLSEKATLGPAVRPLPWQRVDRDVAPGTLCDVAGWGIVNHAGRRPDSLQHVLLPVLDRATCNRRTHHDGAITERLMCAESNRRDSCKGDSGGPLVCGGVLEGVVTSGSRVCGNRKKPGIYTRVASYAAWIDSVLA",
  "assay": "Inhibition Assay: Human factor D (purified from human serum, Complement Technology, Inc.) at 80 nM final concentration is incubated with test compound at various concentrations for 5 minutes at room temperature in 50 mM Tris, 1M NaCl, pH 7.5. A synthetic substrate Z-L-Lys-SBzl and DTNB (Ellman's reagent) are added to final concentrations of 100 μM each. The increase in color is recorded at OD405 nm in a microplate in kinetic mode over 30 minutes with 30 second time points in a […]. IC50 values are calculated by non-linear regression from the percentage of inhibition of complement factor D activity as a function of test compound concentration.",
  "data": [
    {"smiles": "NC(=O)c1nn(CC(=O)N2C[C@H](F)C[C@H]2C(=O)Nc2cncc(Br)n2)c2ccc(C#Cc3ncc(F)cn3)cc12", "values": [
      {"measurement": "IC50", "result": "< 1", "unit": "µM"}
    ]}
  ]
}
